One experiment relates to MCF-7 cells. Briefly: MCF7 Viability Assay (Breast Cancer Cell Viability Assay). It counts as cell-based. As to conditions: 5 days' compound exposure, CellTiter-Glo; for IC50: Homo sapiens, MCF7, 120 h. In short, it runs like this: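 Cells (320 per well, RPMI with 10% FBS and 20 mM HEPES) adhered overnight, then were exposed 5 days to an eleven-point semilog compound series, 0.3-0.000003 μM final. Viability read by CellTiter-Glo luminescence, background-subtracted, expressed as % of untreated cells.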

A further experiment deals with T1, ER-α (Homo sapiens, UniProt P03372).
T1 construct: endogenous in cells; host or cells: MCF-7
T1 sequence (P03372 1-595): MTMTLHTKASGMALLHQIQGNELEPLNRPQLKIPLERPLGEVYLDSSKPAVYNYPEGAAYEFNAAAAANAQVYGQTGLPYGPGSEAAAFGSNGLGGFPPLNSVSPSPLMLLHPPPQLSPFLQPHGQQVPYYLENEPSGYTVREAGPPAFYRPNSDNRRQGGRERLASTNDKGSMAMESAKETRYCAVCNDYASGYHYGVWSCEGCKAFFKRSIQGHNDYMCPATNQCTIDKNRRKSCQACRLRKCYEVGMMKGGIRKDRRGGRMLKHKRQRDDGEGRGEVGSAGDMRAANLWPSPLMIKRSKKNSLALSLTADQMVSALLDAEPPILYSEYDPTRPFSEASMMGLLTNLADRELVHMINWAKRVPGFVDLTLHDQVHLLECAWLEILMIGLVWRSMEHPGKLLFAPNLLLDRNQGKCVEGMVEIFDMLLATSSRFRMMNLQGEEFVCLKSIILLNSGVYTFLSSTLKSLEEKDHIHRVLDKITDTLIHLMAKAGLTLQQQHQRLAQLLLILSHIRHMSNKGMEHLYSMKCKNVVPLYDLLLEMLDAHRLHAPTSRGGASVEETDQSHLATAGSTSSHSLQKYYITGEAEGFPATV
Briefly: Breast Cancer Cell ER-α In Cell Western Assay (SP1). The format is cell-based. The note with it: MCF-7 cells, 4 or 24 hr post compound addition, SP1 antibody; for Emax: MCF7, read-out: ER-α In Cell Western Assay (SP1) Max Response; for DC50: read-out: ER-α In Cell Western Assay (SP1) IC50. A digest of the protocol: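 MCF-7 cells in RPMI with 10% charcoal-stripped FBS received an eleven-point semilog series, 0.3-0.000003 μM final, for 4 or 24 hr. After fixation, ER-α stained with SP1 antibody and IRDye 800 CW, DNA with DRAQ5; % ER = 800/700 nm intensity ratio relative to untreated cells.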

Structures are written as SMILES.

For the compound `O=C(O)/C=C/c1ccc(/C(=C(\c2ccc(C(F)(F)F)cc2Cl)C2CCC2)c2ccc(N3CCOCC3)cc2)cc1` [Example 48, (E)-3-(4-((E)-2-(2-Chloro-4-(trifluoromethyl)phenyl)-2-cyclobutyl-1-(4-morpholinophenyl)vinyl)phenyl)acrylic acid], in the experiment on MCF-7 cells, the “MCF7 Viability Assay Max Response” value is reported as “++ (++ = a single % value ≧ 40%)” and the IC50 is not above 100 nM. At ER-α, the Emax is not below 40% and the DC50 was not above 100 nM.
For `O=C(O)/C=C/c1ccc(/C(=C(\c2ccc(F)cc2Cl)C2CCC2)c2ccc(-c3nn[nH]n3)cc2)cc1` [Example 49, (E)-3-(4-((E)-1-(4-(2H-Tetrazol-5-yl)phenyl)-2-(2-chloro-4-fluorophenyl)-2-cyclobutylvinyl)phenyl)acrylic acid], in the experiment with MCF-7 cells, the “MCF7 Viability Assay Max Response” value was “+ (+ = a single % value < 40%)” and the IC50 is more than 100 nM. Besides, on ER-α, the Emax was less than 40% and the DC50 is more than 100 nM.
Consider `COc1ccc(/C(=C(\c2ccc(/C=C/C(=O)O)cc2)c2ccc(-c3nn[nH]n3)cc2)C2CCC2)c(Cl)c1` [Example 50, (E)-3-(4-((E)-1-(4-(2H-Tetrazol-5-yl)phenyl)-2-(2-chloro-4-methoxyphenyl)-2-cyclobutylvinyl)phenyl)acrylic acid], for which, in the experiment with MCF-7 cells, the “MCF7 Viability Assay Max Response” value was “++ (++ = a single % value ≧ 40%)” and the IC50 was more than 100 nM. Also, on ER-α, the Emax was not below 40% and the DC50 is more than 100 nM.
On to `COc1ccc(/C(=C(\c2ccc(/C=C/C(=O)O)cc2)c2ccc(-c3cn[nH]c3)cc2)C2CCC2)c(Cl)c1` [Example 51, (E)-3-(4-((E)-1-(4-(1H-Pyrazol-4-yl)phenyl)-2-(2-chloro-4-methoxyphenyl)-2-cyclobutylvinyl)phenyl)acrylic acid], for which, in the experiment with MCF-7 cells, the “MCF7 Viability Assay Max Response” value is recorded as “++ (++ = a single % value ≧ 40%)” and the half-inhibitory concentration (IC50) was not above 100 nM. Moreover, on ER-α, the Emax was not below 40% and the DC50 was not above 100 nM.
For the compound `O=C(O)/C=C/c1ccc(/C(=C(\c2ccc(OC(F)(F)F)cc2Cl)C2CCC2)c2ccc(-c3cn[nH]c3)cc2)cc1` [Example 52, (E)-3-(4-((E)-1-(4-(1H-Pyrazol-4-yl)phenyl)-2-(2-chloro-4-(trifluoromethoxy)phenyl)-2-cyclobutylvinyl)phenyl)acrylic acid], in the experiment on MCF-7 cells, the “MCF7 Viability Assay Max Response” value is on record as “++ (++ = a single % value ≧ 40%)” and the IC50 was not above 100 nM. For the same compound, on ER-α, the Emax was not below 40% and the DC50 was not above 100 nM.
`COc1ccc(/C(=C(\c2ccc(/C=C/C(=O)O)cc2)c2ccc(-c3cncs3)cc2)C2CCC2)c(Cl)c1` [Example 53, (E)-3-(4-((E)-2-(2-Chloro-4-methoxyphenyl)-2-cyclobutyl-1-(4-(thiazol-5-yl)phenyl)vinyl)phenyl)acrylic acid]: in the experiment on MCF-7 cells, the “MCF7 Viability Assay Max Response” value is “++ (++ = a single % value ≧ 40%)” and the IC50 is not above 100 nM. Further, on ER-α, the Emax is not below 40% and the DC50 was not above 100 nM.
Consider `COc1ccc(/C(=C(\c2ccc(/C=C/C(=O)O)cc2)c2ccc(-c3cncs3)cc2)C2CCC2)c(C)c1` [Example 54, (E)-3-(4-((E)-2-Cyclobutyl-2-(4-methoxy-2-methylphenyl)-1-(4-(thiazol-5-yl)phenyl)vinyl)phenyl)acrylic acid], for which, in the experiment with MCF-7 cells, the “MCF7 Viability Assay Max Response” value is “++ (++ = a single % value ≧ 40%)” and the IC50 was not above 100 nM. In addition, on ER-α, the Emax was not below 40% and the DC50 is not above 100 nM.
In the case of `O=C(O)/C=C/c1ccc(/C(=C(\c2ccc(C(F)(F)F)cc2Cl)C2CCC2)c2ccc(-c3cn[nH]c3)cc2)cc1` [Example 55, (E)-3-(4-((E)-1-(4-(1H-Pyrazol-4-yl)phenyl)-2-(2-chloro-4-(trifluoromethyl)phenyl)-2-cyclobutylvinyl)phenyl)acrylic acid], in the experiment on MCF-7 cells, the “MCF7 Viability Assay Max Response” value is “++ (++ = a single % value ≧ 40%)” and the IC50 was not above 100 nM. At ER-α, the Emax is not below 40% and the DC50 is not above 100 nM.
On to `O=C(O)/C=C/c1ccc(/C(=C(\c2ccc(F)cc2Cl)C2CCC2)c2ccc(-c3ccncc3)cc2)cc1` [Example 56, (E)-3-(4-((E)-2-(2-Chloro-4-fluorophenyl)-2-cyclobutyl-1-(4-(pyridin-4-yl)phenyl)vinyl)phenyl)acrylic acid], for which, in the experiment with MCF-7 cells, the “MCF7 Viability Assay Max Response” value is “++ (++ = a single % value ≧ 40%)” and the half-inhibitory concentration (IC50) is not above 100 nM. For the same compound, on ER-α, the Emax was not below 40% and the DC50 was not above 100 nM.
For the compound `O=C(O)/C=C/c1ccc(/C(=C(\c2ncc(C(F)(F)F)cc2Cl)C2CCC2)c2ccc(N3CCOCC3)cc2)cc1` [Example 57, (E)-3-(4-((E)-2-(3-Chloro-5-(trifluoromethyl)pyridin-2-yl)-2-cyclobutyl-1-(4-morpholinophenyl)vinyl)phenyl)acrylic acid], in the experiment with MCF-7 cells, the “MCF7 Viability Assay Max Response” value was “++ (++ = a single % value ≧ 40%)” and the IC50 is not above 100 nM. In addition, on ER-α, the Emax is not below 40% and the DC50 is not above 100 nM.
For `O=C(O)/C=C/c1ccc(/C(=C(\c2ncc(C(F)(F)F)cc2Cl)C2CCC2)c2ccc(-c3cn[nH]c3)cc2)cc1` [Example 58, (E)-3-(4-((E)-1-(4-(1H-Pyrazol-4-yl)phenyl)-2-(3-chloro-5-(trifluoromethyl)pyridin-2-yl)-2-cyclobutylvinyl)phenyl)acrylic acid], in the experiment on MCF-7 cells, the “MCF7 Viability Assay Max Response” value is reported as “++ (++ = a single % value ≧ 40%)” and the IC50 is not above 100 nM. Further, at ER-α, the Emax was not below 40% and the DC50 is not above 100 nM.
With `O=C(O)/C=C/c1ccc(/C(=C(\c2ncc(C(F)(F)F)cc2Cl)C2CCC2)c2ccc(-c3cncs3)cc2)cc1` [Example 59, (E)-3-(4-((E)-2-(3-Chloro-5-(trifluoromethyl)pyridin-2-yl)-2-cyclobutyl-1-(4-(thiazol-5-yl)phenyl)vinyl)phenyl)acrylic acid], in the experiment on MCF-7 cells, the “MCF7 Viability Assay Max Response” value was “++ (++ = a single % value ≧ 40%)” and the 50% inhibitory concentration (IC50) is not above 100 nM. For the same compound, on ER-α, the Emax was not below 40% and the DC50 was not above 100 nM.
Turning to `N#Cc1cc(N2CCOCC2)ccc1/C(=C(/c1ccc(F)cc1Cl)C1CCC1)c1ccc(/C=C/C(=O)O)cc1` [Example 60, (E)-3-(4-((E)-2-(2-Chloro-4-fluorophenyl)-1-(2-cyano-4-morpholinophenyl)-2-cyclobutylvinyl)phenyl)acrylic acid], in the experiment on MCF-7 cells, the “MCF7 Viability Assay Max Response” value is reported as “++ (++ = a single % value ≧ 40%)” and the IC50 is not above 100 nM. Besides, at ER-α, the Emax is not below 40% and the DC50 was not above 100 nM.
As to `COc1cc(C)c(/C(=C(\c2ccc(/C=C/C(=O)O)cc2)c2ccc(-c3cn[nH]c3)cc2)C2CCC2)cn1` [Example 61, (E)-3-(4-((E)-1-(4-(1H-Pyrazol-4-yl)phenyl)-2-cyclobutyl-2-(6-methoxy-4-methylpyridin-3-yl)vinyl)phenyl)acrylic acid], in the experiment with MCF-7 cells, the “MCF7 Viability Assay Max Response” value is “++ (++ = a single % value ≧ 40%)” and the IC50 was not above 100 nM. Moreover, at ER-α, the Emax was not below 40% and the DC50 was not above 100 nM.
Regarding `N#Cc1cc(Cl)ccc1/C(=C(\c1ccc(/C=C/C(=O)O)cc1)c1ccc(-c2cncs2)cc1)C1CCC1` [Example 62, (E)-3-(4-((E)-2-(4-Chloro-2-cyanophenyl)-2-cyclobutyl-1-(4-(thiazol-5-yl)phenyl)vinyl)phenyl)acrylic acid], in the experiment with MCF-7 cells, the “MCF7 Viability Assay Max Response” value is given as “++ (++ = a single % value ≧ 40%)” and the IC50 was not above 100 nM. Also, at ER-α, the Emax was not below 40% and the DC50 was not above 100 nM.
For `c1ccc(/C(=C(\c2ccc(OCCN3CCCC3)cc2)c2ccc(-c3cn[nH]c3)cc2)C2CCC2)cc1` [Example 63, (Z)-4-(4-(2-cyclobutyl-2-phenyl-1-(4-(2-(pyrrolidin-1-yl)ethoxy)phenyl)vinyl)phenyl)-1H-pyrazole], in the experiment on MCF-7 cells, the “MCF7 Viability Assay Max Response” value is on record as “++ (++ = a single % value ≧ 40%)” and the IC50 was not above 100 nM. Moreover, on ER-α, the Emax was not below 40% and the DC50 was not above 100 nM.
With `CC1CCN(c2ccc(/C(=C(/c3ccccc3)C3CCC3)c3ccc(/C=C/C(=O)O)cc3)cc2)CC1` [Example 64, (E)-3-(4-((E)-2-Cyclobutyl-1-(4-(4-methylpiperidin-1-yl)phenyl)-2-phenylvinyl)phenyl)acrylic acid], in the experiment on MCF-7 cells, the “MCF7 Viability Assay Max Response” value was “++ (++ = a single % value ≧ 40%)” and the 50% inhibitory concentration (IC50) was more than 100 nM. Further, at ER-α, the Emax was not below 40% and the DC50 is more than 100 nM.

Broadly, the IC50 is the concentration at which inhibition is half-maximal.

Source of the values: patent US9586952B2, “Polycyclic estrogen receptor modulators and uses thereof” (SERAGON PHARMACEUTICALS, INC., priority 2013, dated 2017).
